Experimental data as given in PubChem BioAssay (NCI).
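In this assay, cells in 96-well plates receive the compound at five concentrations for 48 hours. Endpoints are linearly interpolated between the surrounding concentrations. Definition used: TGI = concentration required for complete inhibition of growth.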

Tests used:
Assay in all cases: NCI-60 cell line screen, 48 h
[1] = test system: ACHN renal
[2] = test system: HCC-2998 colon
[3] = test system: SF-539 CNS
[4] = test system: SR leukemia
[5] = test system: SK-MEL-5 melanoma
[6] = test system: UACC-62 melanoma
[7] = test system: M14 melanoma
[8] = test system: CAKI-1 renal
[9] = test system: SW-620 colon
[10] = test system: OVCAR-8 ovarian
[11] = test system: SK-MEL-2 melanoma
[12] = test system: U251 CNS
[13] = test system: 786-0 renal
[14] = test system: MDA-N
[15] = test system: SNB-75 CNS
[16] = test system: DU-145 prostate
[17] = test system: LOX IMVI melanoma
[18] = test system: CCRF-CEM leukemia
[19] = test system: NCI-H460 lung
[20] = test system: K-562 leukemia
[21] = test system: IGROV1 ovarian
[22] = test system: SN12C renal
[23] = test system: COLO 205 colon
[24] = test system: KM12 colon
[25] = test system: MOLT-4 leukemia
[26] = test system: HCT-15 colon
[27] = test system: SNB-19 CNS
[28] = test system: EKVX NSCLC
[29] = test system: UO-31 renal
[30] = test system: OVCAR-3 ovarian
[31] = test system: PC-3 prostate
[32] = test system: A549 NSCLC
[33] = test system: SK-MEL-28 melanoma
[34] = test system: TK-10 renal
[35] = test system: MDA-MB-435
[36] = test system: HT29 colon
[37] = test system: RPMI-8226 leukemia
[38] = test system: BT-549 breast
[39] = test system: OVCAR-5 ovarian
[40] = test system: MDA-MB-231 breast
[41] = test system: A498 renal
[42] = test system: UACC-257 melanoma
[43] = test system: SF-295 CNS
[44] = test system: NCI-H522 lung
[45] = test system: SF-268 CNS
[46] = test system: NCI-H226 lung
[47] = test system: SK-OV-3 ovarian
[48] = test system: HS 578T breast
[49] = test system: RXF 393 renal
[50] = test system: NCI-H23 lung
[51] = test system: NCI/ADR-RES ovarian
[52] = test system: HL-60(TB) leukemia
[53] = test system: MCF7 breast
[54] = test system: HOP-62 NSCLC
[55] = test system: MALME-3M melanoma
[56] = test system: HCT-116 colon
[57] = test system: HOP-92 NSCLC
[58] = test system: OVCAR-4 ovarian

Question: For `O=c1cc(CBr)c2ccc(O)cc2o1`, which TGI [1] is on record?
Answer: > 100 µM

Question: And the TGI [2]?
Answer: > 100 µM

Question: And the TGI [3]?
Answer: > 100 µM

Question: What about the TGI [4] of the same molecule?
Answer: > 100 µM

Question: What about the TGI [5] of the same molecule?
Answer: > 100 µM

Question: And the TGI [6]?
Answer: > 100 µM

Question: What about the TGI [7] of the same molecule?
Answer: > 100 µM

Question: And the TGI [8]?
Answer: > 100 µM

Question: What about the TGI [9] of the same molecule?
Answer: > 100 µM

Question: And the TGI [10]?
Answer: > 100 µM

Question: What about the TGI [11] of the same molecule?
Answer: > 100 µM

Question: And the TGI [12]?
Answer: > 100 µM

Question: And the TGI [13]?
Answer: > 100 µM

Question: And the TGI [14]?
Answer: > 100 µM

Question: What about the TGI [15] of the same molecule?
Answer: > 100 µM

Question: And the TGI [16]?
Answer: > 100 µM

Question: And the TGI [17]?
Answer: > 100 µM

Question: What about the TGI [18] of the same molecule?
Answer: > 100 µM

Question: What about the TGI [19] of the same molecule?
Answer: > 100 µM

Question: What about the TGI [20] of the same molecule?
Answer: > 100 µM

Question: And the TGI [21]?
Answer: > 100 µM

Question: And the TGI [22]?
Answer: > 100 µM

Question: What about the TGI [23] of the same molecule?
Answer: > 100 µM

Question: And the TGI [24]?
Answer: > 100 µM

Question: What about the TGI [25] of the same molecule?
Answer: > 100 µM

Question: And the TGI [26]?
Answer: > 100 µM

Question: And the TGI [27]?
Answer: > 100 µM

Question: And the TGI [28]?
Answer: 91.1 µM

Question: And the TGI [29]?
Answer: > 100 µM

Question: And the TGI [30]?
Answer: > 100 µM

Question: And the TGI [31]?
Answer: > 100 µM

Question: What about the TGI [32] of the same molecule?
Answer: > 100 µM

Question: And the TGI [33]?
Answer: > 100 µM

Question: What about the TGI [34] of the same molecule?
Answer: > 100 µM

Question: And the TGI [35]?
Answer: > 100 µM

Question: What about the TGI [36] of the same molecule?
Answer: > 100 µM

Question: What about the TGI [37] of the same molecule?
Answer: > 100 µM

Question: And the TGI [38]?
Answer: 77 µM

Question: What about the TGI [39] of the same molecule?
Answer: > 100 µM

Question: And the TGI [40]?
Answer: > 100 µM

Question: And the TGI [41]?
Answer: > 100 µM

Question: What about the TGI [42] of the same molecule?
Answer: > 100 µM

Question: What about the TGI [43] of the same molecule?
Answer: > 100 µM

Question: What about the TGI [44] of the same molecule?
Answer: > 100 µM

Question: And the TGI [45]?
Answer: > 100 µM

Question: And the TGI [46]?
Answer: > 100 µM

Question: What about the TGI [47] of the same molecule?
Answer: > 100 µM

Question: And the TGI [48]?
Answer: > 100 µM

Question: What about the TGI [49] of the same molecule?
Answer: > 100 µM

Question: And the TGI [50]?
Answer: > 100 µM

Question: What about the TGI [51] of the same molecule?
Answer: > 100 µM

Question: What about the TGI [52] of the same molecule?
Answer: > 100 µM

Question: And the TGI [53]?
Answer: > 100 µM

Question: What about the TGI [54] of the same molecule?
Answer: 50.3 µM

Question: What about the TGI [55] of the same molecule?
Answer: > 100 µM

Question: What about the TGI [56] of the same molecule?
Answer: > 100 µM

Question: For `COC(=O)C1=C(\c2ccccc2)c2ccccc2C(=O)N(C2CCCCC2)/C=C\1`, which TGI [1] is on record?
Answer: > 100 µM

Question: And the TGI [2]?
Answer: 62 µM

Question: What about the TGI [3] of the same molecule?
Answer: 55.9 µM

Question: What about the TGI [5] of the same molecule?
Answer: 24.3 µM

Question: What about the TGI [7] of the same molecule?
Answer: > 100 µM

Question: What about the TGI [8] of the same molecule?
Answer: 54.6 µM

Question: What about the TGI [9] of the same molecule?
Answer: > 100 µM

Question: And the TGI [10]?
Answer: > 100 µM

Question: And the TGI [11]?
Answer: 39.2 µM

Question: What about the TGI [12] of the same molecule?
Answer: 63.1 µM

Question: What about the TGI [13] of the same molecule?
Answer: > 100 µM

Question: And the TGI [14]?
Answer: > 100 µM

Question: And the TGI [15]?
Answer: > 100 µM

Question: What about the TGI [16] of the same molecule?
Answer: > 100 µM

Question: What about the TGI [17] of the same molecule?
Answer: 37.7 µM

Question: What about the TGI [18] of the same molecule?
Answer: 75.5 µM

Question: What about the TGI [19] of the same molecule?
Answer: 65.7 µM

Question: What about the TGI [20] of the same molecule?
Answer: > 100 µM

Question: What about the TGI [21] of the same molecule?
Answer: > 100 µM

Question: And the TGI [22]?
Answer: > 100 µM

Question: And the TGI [23]?
Answer: 28.8 µM

Question: What about the TGI [57] of the same molecule?
Answer: 95.2 µM

Question: And the TGI [24]?
Answer: 45.8 µM

Question: What about the TGI [25] of the same molecule?
Answer: > 100 µM

Question: And the TGI [26]?
Answer: > 100 µM

Question: What about the TGI [27] of the same molecule?
Answer: > 100 µM

Question: And the TGI [28]?
Answer: > 100 µM

Question: And the TGI [29]?
Answer: > 100 µM

Question: What about the TGI [30] of the same molecule?
Answer: 79.4 µM

Question: What about the TGI [31] of the same molecule?
Answer: > 100 µM

Question: And the TGI [32]?
Answer: > 100 µM

Question: And the TGI [33]?
Answer: 39.8 µM

Question: And the TGI [34]?
Answer: > 100 µM

Question: And the TGI [58]?
Answer: > 100 µM

Question: What about the TGI [35] of the same molecule?
Answer: 45.1 µM

Question: What about the TGI [36] of the same molecule?
Answer: > 100 µM

Question: What about the TGI [38] of the same molecule?
Answer: 74.6 µM

Question: What about the TGI [39] of the same molecule?
Answer: > 100 µM

Question: And the TGI [40]?
Answer: 45.1 µM

Question: And the TGI [41]?
Answer: > 100 µM

Question: What about the TGI [42] of the same molecule?
Answer: 41.5 µM

Question: And the TGI [43]?
Answer: > 100 µM

Question: What about the TGI [44] of the same molecule?
Answer: > 100 µM

Question: What about the TGI [45] of the same molecule?
Answer: > 100 µM

Question: What about the TGI [46] of the same molecule?
Answer: 81.5 µM

Question: And the TGI [47]?
Answer: > 100 µM

Question: And the TGI [50]?
Answer: > 100 µM

Question: And the TGI [51]?
Answer: > 100 µM

Question: What about the TGI [52] of the same molecule?
Answer: > 100 µM

Question: And the TGI [53]?
Answer: 77.4 µM

Question: What about the TGI [54] of the same molecule?
Answer: 45.3 µM

Question: And the TGI [55]?
Answer: 68.6 µM

Question: What about the TGI [56] of the same molecule?
Answer: 64 µM
